Patent US20250281457A1, “TREATMENT OR PREVENTION OF DENGUE VIRAL INFECTION” (Janssen Pharmaceuticals, Inc., priority 2022, published 2025)
Where two headings read alike, the source gives them in different places.

Assay: Effect of food on plasma pharmacokinetics after single oral dose of SF2a/b (Example 2)
Type: in vivo, human
Details: both sexes, human, plasma, oral, 800 mg; for Tmax: read-out: tmax, Median
Procedure: The effect of food on the pharmacokinetics (PK) of Compound (a) was assessed in healthy participants after a single oral dose of SF2a/b, described in Example 1, administered at different dose levels in a randomized single dose, 2-period crossover study. The effect of food on the PK of Compound (a) was determined at 3 different dose levels (50 mg, 200 mg, and 800 mg) for a standardized breakfast; at one dose level (800 mg) for a high-fat, high-calorie breakfast; at two dose levels (200 mg and 800 mg) for a low-fat, low-calorie breakfast, as well as for a low-fat, high-calorie breakfast. 124 healthy adult participants (male and female, 18 to 55 years of age) were enrolled in this study. The volunteers were divided in six panels, which were organized as follows: • Panel […]: • Treatment D: A single 800-mg dose (4×200-mg tablets) of Compound (a) SF2b in fasted conditions. • Treatment E: A single 800-mg dose (4×200-mg tablets) of Compound (a) SF2b in fed conditions (standardized breakfast). • Treatments D and E (treatment sequence group 1 [n=8]: DE; treatment sequence group 2 [n=8]: ED). Panel 4, n=14: • Treatment F: A single 200-mg dose (1×200-mg tablet) of Compound (a) SF2b in fasted conditions. • Treatment G: A single 200-mg dose (1×200-mg tablet) of Compound (a) SF2b, in fed conditions (standardized breakfast). • Treatments F and G (treatment sequence group 1 [n=7]: FG; treatment sequence group 2 [n=7]: GF). Panel […]: • Treatment H: A single 50-mg dose (1×50-mg tablet) of Compound (a) SF2a in fasted conditions. • Treatment I: A single 50-mg dose (1×50-mg tablet) of Compound (a) SF2a in fed conditions (standardized breakfast). • Treatments H and I (treatment sequence group 1 [n=7]: HI; treatment sequence group 2 [n=7]: IH). Panel 6 (n=16): • Treatment J: single 800-mg dose (4×200-mg tablets) of Compound (a) administered as SF2b in fasted conditions. • Treatment K: single 800-mg dose (4×200-mg tablets) of Compound (a) administered as SF2b in fed conditions (high-fat, high-calorie breakfast). • Treatments J and K (treatment sequence group 1 [n=8]: JK; treatment sequence group 2 [n=8]: KJ). Panel 7 (n=32): • Treatment L: single 800-mg dose (4×200-mg tablets) of Compound (a) administered as SF2b in fed conditions (low-fat, low-calorie breakfast). • Treatment M: single 800-mg dose (4×200-mg tablets) of Compound (a) administered as SF2b in fed conditions (low-fat, high-calorie breakfast). • Treatment L (n=16) or Treatment M (n=16). Panel 8 (n=32): • Treatment N: single 200-mg dose (1×200-mg tablet) of Compound (a) administered as SF2b in fed conditions (low-fat, low-calorie breakfast). • Treatment O: single 200-mg dose (1×200-mg tablet) of Compound (a) administered as SF2b in fed conditions (low-fat, high-calorie breakfast). • Treatment N (n=16) or Treatment O (n=16). Tablets were administered orally, together with approximately 240 mL of non-carbonated water, in fasted or fed conditions. […] On day 1 of all treatments in each panel, the participants had fasted overnight for at least 10 hours before study drug intake. Intake of water was not allowed from 2 hours before and until 2 hours after study drug intake, except for the water used for study drug intake and breakfast. In case of intake in fed conditions, study drug was administered within 10 minutes after completing a standardized breakfast (Treatments E, G, and I), or a high-fat, high-calorie breakfast (Treatment K), a low-fat, low-calorie breakfast (Treatments L and N), or a low-fat, high-calorie breakfast (Treatments M and O). For treatments E, G, and I a standardized breakfast was served, consisting of (or its equivalent) 4 slices of bread, 2 slices of ham or cheese, butter, jelly, and 1 or 2 cups (up to 355 mL) of decaffeinated coffee or tea with milk and/or sugar, if desired (containing approximately: fat: 21 g, carbohydrates: 67 g, proteins: 19 g; total calories: 533 kcal). For treatment K in a high-fat, high-calorie breakfast was served. […]

Cmax (800 mg SF2b, fed, high-fat, high-calorie breakfast, read-out: Cmax, Geometric LS Means Treatment K): 4.05 µg/mL | AUC(0-t) (800 mg SF2b, fed, low-fat, high-calorie breakfast, read-out: AUClast, Geometric LS Means Treatment M): 227 µg·h/mL | AUC(0-inf) (800 mg SF2b, fed, low-fat, high-calorie breakfast, read-out: AUC∞, Geometric LS Means Treatment M): 237 µg·h/mL | Cmax (800 mg SF2b, fed, low-fat, high-calorie breakfast, read-out: Cmax, Geometric LS Means Treatment M): 2.06 µg/mL | AUC(0-t) (800 mg SF2b, fed, low-fat, low-calorie breakfast, read-out: AUClast, Geometric LS Means Treatment L): 210 µg·h/mL | AUC(0-inf) (800 mg SF2b, fed, low-fat, low-calorie breakfast, read-out: AUC∞, Geometric LS Means Treatment L): 221 µg·h/mL | Cmax (800 mg SF2b, fed, low-fat, low-calorie breakfast, read-out: Cmax, Geometric LS Means Treatment L): 2.06 µg/mL | AUC(0-t) (800 mg SF2b, fed, standardized breakfast (Tables 5F, 5H), read-out: AUClast, Geometric LS Means Treatment E): 347 µg·h/mL | AUC(0-inf) (800 mg SF2b, fed, standardized breakfast (Tables 5F, 5H), read-out: AUC∞, Geometric LS Means Treatment E): 341 µg·h/mL | Cmax (800 mg SF2b, fed, standardized breakfast (Tables 5F, 5H), read-out: Cmax, Geometric LS Means Treatment E): 3.4 µg/mL | AUC(0-t) (800 mg SF2b, standardized breakfast, linear mixed effects model (Table 5A), read-out: AUClast, Geometric Mean Treatment E): 337 µg·h/mL | AUC(0-inf) (800 mg SF2b, standardized breakfast, linear mixed effects model (Table 5A), read-out: AUC∞, Geometric Mean Treatment E): 352 µg·h/mL | Cmax (800 mg SF2b, standardized breakfast, linear mixed effects model (Table 5A), read-out: Cmax, Geometric Mean Treatment E): 3.39 µg/mL | AUC(0-t) (Treatment D: single 800 mg (SF2b), fasted, read-out: AUClast, Geo. Mean): 133 µg·h/mL | AUC(0-t) (Treatment D: single 800 mg (SF2b), fasted, read-out: AUClast, Mean): 149 µg·h/mL | AUC(0-t) (Treatment D: single 800 mg (SF2b), fasted, read-out: AUClast, Median): 138 µg·h/mL | AUC(0-inf) (Treatment D: single 800 mg (SF2b), fasted, read-out: AUC∞, Geo. Mean): 142 µg·h/mL | AUC(0-inf) (Treatment D: single 800 mg (SF2b), fasted, read-out: AUC∞, Mean): 160 µg·h/mL | AUC(0-inf) (Treatment D: single 800 mg (SF2b), fasted, read-out: AUC∞, Median): 144 µg·h/mL | Cmax (Treatment D: single 800 mg (SF2b), fasted, read-out: Cmax, Geo. Mean): 1.15 µg/mL | Cmax (Treatment D: single 800 mg (SF2b), fasted, read-out: Cmax, Mean): 1.3 µg/mL | Cmax (Treatment D: single 800 mg (SF2b), fasted, read-out: Cmax, Median): 1.45 µg/mL | half-life (Treatment D: single 800 mg (SF2b), fasted, read-out: t1/2, term, Geo. Mean (converted)): 180 h | half-life (Treatment D: single 800 mg (SF2b), fasted, read-out: t1/2, term, Mean (converted)): 194 h | half-life (Treatment D: single 800 mg (SF2b), fasted, read-out: t1/2, term, Median (converted)): 179 h | Tmax (Treatment D: single 800 mg (SF2b), fasted): 8 h | AUC(0-t) (Treatment E: single 800 mg (SF2b), fed, standardized breakfast, read-out: AUClast, Geo. Mean): 340 µg·h/mL | AUC(0-t) (Treatment E: single 800 mg (SF2b), fed, standardized breakfast, read-out: AUClast, Mean): 357 µg·h/mL | AUC(0-t) (Treatment E: single 800 mg (SF2b), fed, standardized breakfast, read-out: AUClast, Median): 337 µg·h/mL | AUC(0-inf) (Treatment E: single 800 mg (SF2b), fed, standardized breakfast, read-out: AUC∞, Geo. Mean): 337 µg·h/mL | AUC(0-inf) (Treatment E: single 800 mg (SF2b), fed, standardized breakfast, read-out: AUC∞, Mean): 348 µg·h/mL | AUC(0-inf) (Treatment E: single 800 mg (SF2b), fed, standardized breakfast, read-out: AUC∞, Median): 345 µg·h/mL | Cmax (Treatment E: single 800 mg (SF2b), fed, standardized breakfast, read-out: Cmax, Geo. Mean): 3.4 µg/mL | Cmax (Treatment E: single 800 mg (SF2b), fed, standardized breakfast, read-out: Cmax, Mean): 3.5 µg/mL | Cmax (Treatment E: single 800 mg (SF2b), fed, standardized breakfast, read-out: Cmax, Median): 3.51 µg/mL | half-life (Treatment E: single 800 mg (SF2b), fed, standardized breakfast, read-out: t1/2, term, Geo. Mean (converted)): 166 h | half-life (Treatment E: single 800 mg (SF2b), fed, standardized breakfast, read-out: t1/2, term, Mean (converted)): 176 h | half-life (Treatment E: single 800 mg (SF2b), fed, standardized breakfast, read-out: t1/2, term, Median (converted)): 150 h | Tmax (Treatment E: single 800 mg (SF2b), fed, standardized breakfast): 6 h
Structure (SMILES): COc1cc(NC(C(=O)c2c[nH]c3ccc(OC(F)(F)F)cc23)c2ccc(Cl)cc2OC)cc(S(C)(=O)=O)c1 (stereo not drawn) [Compound (a)]
